Activity calls are given as the source filed them.
How the values were obtained:
[1] = target: T1, Leucine aminopeptidase (Plasmodium falciparum 3D7, UniProt Q8IL11); assay: P. falciparum M17LAP inhibitors, primary screen, biochemical, fluorogenic H-Leu-NHMec substrate, 1536-well (AID 1619); assay type: functional
T1 sequence (Q8IL11 whole entry): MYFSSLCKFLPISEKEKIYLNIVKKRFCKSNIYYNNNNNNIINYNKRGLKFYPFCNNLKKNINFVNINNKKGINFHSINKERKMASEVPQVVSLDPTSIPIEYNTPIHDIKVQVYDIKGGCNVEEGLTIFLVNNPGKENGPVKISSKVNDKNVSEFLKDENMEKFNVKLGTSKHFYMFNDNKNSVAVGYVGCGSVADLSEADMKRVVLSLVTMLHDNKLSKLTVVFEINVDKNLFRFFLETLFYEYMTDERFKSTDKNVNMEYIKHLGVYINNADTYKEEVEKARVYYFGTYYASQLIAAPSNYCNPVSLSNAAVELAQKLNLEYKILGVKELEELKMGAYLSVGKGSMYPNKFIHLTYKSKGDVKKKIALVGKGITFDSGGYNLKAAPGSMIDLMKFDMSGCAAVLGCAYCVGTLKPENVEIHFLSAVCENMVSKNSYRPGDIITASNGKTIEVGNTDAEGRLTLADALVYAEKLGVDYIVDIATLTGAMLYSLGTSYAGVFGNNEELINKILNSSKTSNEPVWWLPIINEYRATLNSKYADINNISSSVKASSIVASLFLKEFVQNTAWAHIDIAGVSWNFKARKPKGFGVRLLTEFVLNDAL

[2] = target: Photoreceptor-specific nuclear receptor (Homo sapiens, UniProt Q9Y5X4); assay type: functional;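 also: potency for compounds that break the NR2E3 corepressor complex and count as activators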
[3] = target: Peroxisome proliferator-activated receptor gamma/Nuclear receptor corepressor 2 (Homo sapiens, UniProt P37231+Q9Y618); assay type: functional
[4] = target: Peroxisome proliferator-activated receptor gamma/Nuclear receptor coactivator 1 (Homo sapiens, UniProt P37231); assay type: functional;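 also: agonist potency as compounds enhance coactivator SRC-1 recruitment to PPARgamma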
[5] = target: Peroxisome proliferator-activated receptor gamma/Nuclear receptor coactivator 2 (Homo sapiens, UniProt P37231); assay type: functional;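 also: agonist potency for raising coactivator recruitment to the receptor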
[6] = target: Peroxisome proliferator-activated receptor gamma/Nuclear receptor coactivator 3 (Homo sapiens, UniProt P37231); assay type: functional;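 also: agonist potency for raising coactivator recruitment to the receptor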
[7] = test system: HT-1080; assay: HT1080 cell viability loss – fluorescence readout (AID 620); assay type: functional, cell-based; conditions: Homo sapiens
[8] = alpha-synuclein stem-loop luciferase translation blockers – H4 neuroglioma cells, luminescence, confirmation (AID 1988); assay type: functional, cell-based
[9] = target: Cytochrome P450 2C19 (Homo sapiens, UniProt P33261); assay: Cytochrome panel assay with activity outcomes. Panel member name: p450-cyp2c19 Compounds with AC50 equal or less than 10 uM are considered active; assay type: functional; conditions: read-out: AC50
[10] = target: Luciferin 4-monooxygenase (Photinus pyralis, UniProt P08659); assay: Counter Screen for Luciferase-based Assay Positives. [Related pubchem assays: 620, 618, 411 ]
[11] = target: Glyceraldehyde-3-phosphate dehydrogenase (Homo sapiens, UniProt P04406)
[12] = luciferase reporter signal suppression in cells – H4 neuroglioma cells, luminescence, dose response (AID 1990); assay type: functional, cell-based
[13] = Luminescence Cell-Based Dose Response HTS to Identify Inhibitors of 5'UTR Stem-Loop Driven Prion Protein mRNA Translation in H4 Neuroglioblastoma Cells. [Related pubchem assays: 1827 (Project Summary), 1813 (Primary HTS)]; assay type: functional
[14] = non-specific 3'UTR reporter inhibition in Clone20-Shn3RL – cell-based, Renilla luciferase, cherry-picked, counter-screen for Shn3 inhibitor project, dose response (AID 624133); assay type: functional
[15] = NIH3T3 cell viability loss – ATP luminescence, mouse fibroblasts, counter-screen, dose response (AID 2010); assay type: functional, cell-based;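 also: cells exposed to compound for about 90 hours before reading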
[16] = cells; assay type: functional
[17] = Trypanosoma cruzi growth suppression in host cells – NIH3T3 host cells, beta-gal luminescence, confirmation (AID 2044); assay type: functional, cell-based;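 also: intracellular parasites grown in NIH/3T3 mouse fibroblasts as host cells; luminescent beta-galactosidase reporter signal from transgenic T. cruzi replicating inside host cells; inhibitors lower the luminescence signal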
[18] = loss of viability in HepG2 cells – cell-based, CellTiter-Glo, cherry-picked, cytotoxicity control for Shn3 inhibitor project, dose response (AID 624134); assay type: functional
[19] = HepG2 cell cytotoxicity, dose response, cytotoxicity control for non-replicating M. tuberculosis project (AID 489018); assay type: functional; conditions: Mycobacterium tuberculosis
[20] = reduction of Shn3 3'UTR-driven luciferase in osteoblasts – cell-based, Clone20 osteoblasts, firefly luciferase, cherry-picked, dose response (AID 624132); assay type: functional;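 also: firefly luciferase luminescence from reporter carrying the Shn3 3'UTR in osteoblasts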
[21] = A cytotoxicity screen of small molecule inhibitors of the PhoP region in Salmonella typhi identified in the primary screen. [Related pubchem assays: 1850, 1864, 1985 ]; assay type: functional
[22] = cells; assay type: functional, cell-based
[23] = alpha-synuclein stem-loop translation blockers – luminescence, H4 neuroglioblastoma cells, dose confirmation, confirmation (AID 2454); assay type: functional, cell-based;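 also: H4 neuroglioblastoma cells carrying an alpha-synuclein 5'UTR luciferase reporter; potency for inhibition of the luciferase signal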
[24] = HEK-293T viability loss, compound-treated – cell-based, uHTS hits, cytotoxicity control for B/T-cell NF-kB inhibitor project, dose response (AID 489019); assay type: functional;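 also: IC50 reflects cytotoxicity as loss of cell viability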
[25] = test system: Jurkat; assay: blockers of NF-kB activation in T cells – Jurkat, luciferase reporter, luminescence, B- and T-cell, dose response (AID 489004); assay type: functional, cell-based; conditions: Homo sapiens;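 also: NF-kB luciferase reporter Jurkat cells stimulated with PMA plus ionomycin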
[26] = luciferase reporter signal reduction – luminescence, H4-C neuroglioblastoma cells, dose response (AID 2458); assay type: functional, cell-based;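 also: H4 neuroglioblastoma cells stably carrying a luciferase reporter gene fusion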
[27] = test system: P388; assay: cells; assay type: functional; conditions: Mus musculus
[28] = test system: SN12K1; assay: cells; assay type: functional; conditions: Homo sapiens
[29] = test system: P388/ADR; assay: cells; assay type: functional; conditions: Mus musculus
[30] = A Cell Based Secondary Assay To Explore Cytotoxicity of Compounds that Sensitize Mycobacterium Tuberculosis to Beta-Lactam Antibiotics.; assay type: functional
[31] = cells; assay type: functional, cell-based; remark: listed apart in the source
[32] = cells; assay type: functional, cell-based; remark: listed apart in the source
[33] = target: Cytochrome P450 2C9 (Homo sapiens, UniProt P11712)
[34] = target: T2, Microphthalmia-associated transcription factor (Homo sapiens, UniProt O75030); assay: reducers of TRPM1 reporter luminescence, concentration series – cell-based, SK-MEL-5, cherry-picked, set 3, MITF inhibitor project, dose response (AID 493073); assay type: functional;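 also: SK-MEL-5 melanoma cells with luciferase driven by the MITF target TRPM1 promoter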
T2 sequence (O75030 whole entry): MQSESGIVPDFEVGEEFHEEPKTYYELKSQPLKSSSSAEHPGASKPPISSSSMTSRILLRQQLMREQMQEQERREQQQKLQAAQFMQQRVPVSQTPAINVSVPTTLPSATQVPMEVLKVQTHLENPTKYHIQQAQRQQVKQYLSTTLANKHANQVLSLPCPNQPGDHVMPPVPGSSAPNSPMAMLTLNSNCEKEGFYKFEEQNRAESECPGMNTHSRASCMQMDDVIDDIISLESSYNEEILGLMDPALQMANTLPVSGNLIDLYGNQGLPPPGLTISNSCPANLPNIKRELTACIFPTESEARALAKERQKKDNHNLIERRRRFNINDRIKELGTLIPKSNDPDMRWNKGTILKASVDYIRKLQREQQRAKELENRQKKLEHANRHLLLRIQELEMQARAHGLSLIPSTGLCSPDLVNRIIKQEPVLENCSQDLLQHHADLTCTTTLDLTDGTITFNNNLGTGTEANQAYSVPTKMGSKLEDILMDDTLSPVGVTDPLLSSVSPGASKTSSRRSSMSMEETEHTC

[35] = target: Cytochrome P450 3A4 (Homo sapiens, UniProt P08684);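 also: CYP3A4 tested as one member of a cytochrome P450 panel screen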

Chain of Luciferin 4-monooxygenase (P08659 whole entry): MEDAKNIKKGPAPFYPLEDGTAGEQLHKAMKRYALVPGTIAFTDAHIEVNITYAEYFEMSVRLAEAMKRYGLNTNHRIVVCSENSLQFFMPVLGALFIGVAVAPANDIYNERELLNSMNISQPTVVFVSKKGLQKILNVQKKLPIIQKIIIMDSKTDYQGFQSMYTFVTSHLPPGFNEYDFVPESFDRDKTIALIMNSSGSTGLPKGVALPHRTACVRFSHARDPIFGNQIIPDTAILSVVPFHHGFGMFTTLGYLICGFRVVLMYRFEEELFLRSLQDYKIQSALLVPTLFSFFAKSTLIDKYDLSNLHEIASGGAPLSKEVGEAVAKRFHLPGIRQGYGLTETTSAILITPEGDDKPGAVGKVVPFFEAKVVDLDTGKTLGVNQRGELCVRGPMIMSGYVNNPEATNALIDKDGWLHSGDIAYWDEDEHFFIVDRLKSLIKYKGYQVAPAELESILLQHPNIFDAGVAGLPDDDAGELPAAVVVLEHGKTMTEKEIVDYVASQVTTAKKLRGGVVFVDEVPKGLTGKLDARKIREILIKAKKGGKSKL
Chain of Photoreceptor-specific nuclear receptor (Q9Y5X4 whole entry): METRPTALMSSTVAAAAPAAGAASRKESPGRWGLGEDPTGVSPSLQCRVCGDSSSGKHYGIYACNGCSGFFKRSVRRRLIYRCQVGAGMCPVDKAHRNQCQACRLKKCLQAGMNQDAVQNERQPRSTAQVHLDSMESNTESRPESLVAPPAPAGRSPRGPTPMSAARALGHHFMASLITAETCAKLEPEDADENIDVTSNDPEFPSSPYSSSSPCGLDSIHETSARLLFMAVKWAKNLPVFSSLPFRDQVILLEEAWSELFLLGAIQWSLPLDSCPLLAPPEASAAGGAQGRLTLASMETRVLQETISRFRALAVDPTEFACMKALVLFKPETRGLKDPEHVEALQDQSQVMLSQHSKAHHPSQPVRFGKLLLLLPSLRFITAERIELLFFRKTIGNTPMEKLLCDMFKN
Chain of Peroxisome proliferator-activated receptor gamma/Nuclear receptor coactivator 2 (P37231 whole entry): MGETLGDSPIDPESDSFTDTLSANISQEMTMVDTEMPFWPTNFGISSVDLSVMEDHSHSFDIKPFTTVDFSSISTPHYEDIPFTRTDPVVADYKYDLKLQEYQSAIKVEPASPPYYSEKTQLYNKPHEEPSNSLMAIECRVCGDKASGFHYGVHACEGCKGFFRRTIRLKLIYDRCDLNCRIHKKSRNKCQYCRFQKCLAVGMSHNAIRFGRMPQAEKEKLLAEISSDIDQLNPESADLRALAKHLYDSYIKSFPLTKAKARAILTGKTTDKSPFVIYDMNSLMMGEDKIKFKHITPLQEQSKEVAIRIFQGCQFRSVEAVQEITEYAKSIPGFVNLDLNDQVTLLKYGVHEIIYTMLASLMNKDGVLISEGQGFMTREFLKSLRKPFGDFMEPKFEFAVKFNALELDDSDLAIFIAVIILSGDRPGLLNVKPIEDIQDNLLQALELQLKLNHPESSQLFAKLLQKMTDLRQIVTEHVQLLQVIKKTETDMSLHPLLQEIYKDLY
Chain of Peroxisome proliferator-activated receptor gamma/Nuclear receptor coactivator 2 (Q15596 whole entry, further chain): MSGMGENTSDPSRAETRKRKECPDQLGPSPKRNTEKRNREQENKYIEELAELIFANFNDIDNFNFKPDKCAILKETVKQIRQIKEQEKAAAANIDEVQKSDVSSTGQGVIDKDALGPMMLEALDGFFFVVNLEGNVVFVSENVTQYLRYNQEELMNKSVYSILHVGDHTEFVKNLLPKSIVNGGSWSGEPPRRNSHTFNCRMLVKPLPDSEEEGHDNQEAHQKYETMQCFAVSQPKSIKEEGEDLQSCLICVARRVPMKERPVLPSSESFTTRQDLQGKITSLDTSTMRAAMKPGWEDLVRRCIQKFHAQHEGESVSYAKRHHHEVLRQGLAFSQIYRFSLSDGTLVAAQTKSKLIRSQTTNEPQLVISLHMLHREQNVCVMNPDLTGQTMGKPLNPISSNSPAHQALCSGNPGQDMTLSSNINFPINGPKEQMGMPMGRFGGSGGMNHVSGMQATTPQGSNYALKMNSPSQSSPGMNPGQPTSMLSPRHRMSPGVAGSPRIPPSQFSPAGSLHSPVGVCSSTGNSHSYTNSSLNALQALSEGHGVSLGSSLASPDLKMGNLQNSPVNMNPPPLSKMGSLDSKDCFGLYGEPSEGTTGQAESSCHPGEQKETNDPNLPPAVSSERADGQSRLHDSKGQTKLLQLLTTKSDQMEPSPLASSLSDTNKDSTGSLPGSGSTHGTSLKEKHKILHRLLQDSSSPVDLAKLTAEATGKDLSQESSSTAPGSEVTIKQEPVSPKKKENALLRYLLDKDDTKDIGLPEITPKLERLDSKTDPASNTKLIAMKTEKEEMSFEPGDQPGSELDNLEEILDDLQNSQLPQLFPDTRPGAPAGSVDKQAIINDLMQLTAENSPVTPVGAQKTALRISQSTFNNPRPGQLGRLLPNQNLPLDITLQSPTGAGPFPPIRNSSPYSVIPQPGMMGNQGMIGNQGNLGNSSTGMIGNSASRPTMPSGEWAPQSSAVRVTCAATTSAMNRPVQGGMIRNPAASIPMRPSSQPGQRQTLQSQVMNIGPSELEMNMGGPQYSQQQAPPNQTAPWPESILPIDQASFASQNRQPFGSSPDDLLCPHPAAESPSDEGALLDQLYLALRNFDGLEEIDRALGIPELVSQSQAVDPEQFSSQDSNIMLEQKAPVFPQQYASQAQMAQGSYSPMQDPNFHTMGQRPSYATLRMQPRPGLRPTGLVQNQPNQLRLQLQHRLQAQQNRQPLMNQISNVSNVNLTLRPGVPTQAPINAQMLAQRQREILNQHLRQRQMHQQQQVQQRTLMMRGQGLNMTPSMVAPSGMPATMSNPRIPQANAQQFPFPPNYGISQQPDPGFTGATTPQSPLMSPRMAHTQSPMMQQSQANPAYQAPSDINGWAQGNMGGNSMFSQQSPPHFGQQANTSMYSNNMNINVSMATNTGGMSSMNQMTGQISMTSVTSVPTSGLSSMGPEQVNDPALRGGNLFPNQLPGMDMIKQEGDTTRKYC
Chain of Peroxisome proliferator-activated receptor gamma/Nuclear receptor coactivator 1 (P37231 whole entry): as the sequence (P37231 whole entry) above
Chain of Peroxisome proliferator-activated receptor gamma/Nuclear receptor coactivator 1 (Q15788 whole entry, further chain): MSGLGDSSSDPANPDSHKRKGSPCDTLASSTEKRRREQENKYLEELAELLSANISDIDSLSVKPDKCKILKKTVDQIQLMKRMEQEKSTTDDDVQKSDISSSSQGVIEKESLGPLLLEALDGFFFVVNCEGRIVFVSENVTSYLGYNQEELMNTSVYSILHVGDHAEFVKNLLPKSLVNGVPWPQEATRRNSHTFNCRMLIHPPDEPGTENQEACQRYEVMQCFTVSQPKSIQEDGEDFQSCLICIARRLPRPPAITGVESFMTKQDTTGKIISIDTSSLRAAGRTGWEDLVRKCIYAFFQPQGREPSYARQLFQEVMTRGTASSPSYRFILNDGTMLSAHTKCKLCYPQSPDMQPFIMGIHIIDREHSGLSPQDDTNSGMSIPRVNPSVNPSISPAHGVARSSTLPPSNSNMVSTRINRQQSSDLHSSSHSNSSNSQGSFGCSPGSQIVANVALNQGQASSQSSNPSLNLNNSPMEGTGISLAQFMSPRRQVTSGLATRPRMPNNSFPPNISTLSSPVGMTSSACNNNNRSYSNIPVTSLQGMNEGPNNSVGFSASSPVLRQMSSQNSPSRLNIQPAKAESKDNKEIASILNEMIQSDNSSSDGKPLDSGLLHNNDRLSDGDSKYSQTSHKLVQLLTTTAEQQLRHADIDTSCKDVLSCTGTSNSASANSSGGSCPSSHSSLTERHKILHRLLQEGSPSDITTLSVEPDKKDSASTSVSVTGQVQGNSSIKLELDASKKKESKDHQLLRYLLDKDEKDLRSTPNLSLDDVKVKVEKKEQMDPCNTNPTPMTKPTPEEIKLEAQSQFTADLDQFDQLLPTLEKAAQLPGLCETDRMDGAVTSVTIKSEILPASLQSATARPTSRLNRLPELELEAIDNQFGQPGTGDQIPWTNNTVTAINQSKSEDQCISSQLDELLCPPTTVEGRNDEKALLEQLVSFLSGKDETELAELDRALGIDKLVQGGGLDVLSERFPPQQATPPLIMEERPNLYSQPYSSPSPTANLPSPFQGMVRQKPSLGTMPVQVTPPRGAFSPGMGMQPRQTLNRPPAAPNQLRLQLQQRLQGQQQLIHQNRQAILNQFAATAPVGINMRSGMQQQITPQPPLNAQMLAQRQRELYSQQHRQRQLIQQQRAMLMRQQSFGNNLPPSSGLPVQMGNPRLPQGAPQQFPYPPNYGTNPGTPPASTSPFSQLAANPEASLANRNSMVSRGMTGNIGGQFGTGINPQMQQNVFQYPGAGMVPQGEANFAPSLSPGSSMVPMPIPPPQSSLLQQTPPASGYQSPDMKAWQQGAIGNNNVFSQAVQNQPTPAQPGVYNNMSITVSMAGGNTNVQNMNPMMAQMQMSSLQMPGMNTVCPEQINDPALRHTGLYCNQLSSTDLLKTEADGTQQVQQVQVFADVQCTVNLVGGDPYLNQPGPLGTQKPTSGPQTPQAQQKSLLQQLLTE

CC(C)[C@H](Nc1nc(-c2ccccc2)nc2c1oc1ccccc12)C(=O)O
IC50 [1]: 25.2 µM (active)

CCc1cc2cc(C(=O)Nc3ccc(C)cc3)sc2s1
IC50 [2]: > 39.8 µM (not active) | IC50 [3]: 2.25 µM (active) | EC50 [4]: 50.4 µM (not active) | EC50 [5]: 28.1 µM (not active) | EC50 [6]: 50.8 µM (not active)

CCOc1ccc(-c2cc(CCCC(=O)Nc3cc(OC)ccc3OC)no2)cc1
EC50 [7]: > 50 µM (not active) | EC50 [8]: 11.9 µM (active) | AC50 [9]: 3.16 µM (inconclusive) | EC50 [10]: 18.8 µM (active) | IC50 [11]: > 100 µM (not active) | EC50 [12]: 13 µM (active) | EC50 [13]: 26.9 µM (active)

CC(C)(C)c1ccc(NC(=O)COc2ccc(-n3ccnc3)cc2)cc1
AC50 [14]: 10 µM (active) | EC50 [15]: > 60 µM (not active) | IC50 [16]: 26.1 µM (active) | EC50 [17]: 1.27 µM (active) | AC50 [18]: 43.1 µM (active) | CC50 [19]: > 20 µM (active) | AC50 [20]: 5.27 µM (active) | EC50 [21]: > 50 µM (active)

COc1ccc(/C(C)=C2/SC(=S)N(CCC(=O)O)C2=O)cc1
IC50 [1]: 27.4 µM (active)

C=CCNC(=O)c1ccc(-c2nc(-c3ccc(Cl)cc3Cl)cs2)cc1
EC50 [4]: 17.1 µM (not active) | EC50 [5]: 10.2 µM (not active) | EC50 [6]: 10.9 µM (not active)

COc1ccc(-c2nc3cc(NC(=O)Cc4ccc(OC)c(OC)c4)ccc3o2)cc1
EC50 [21]: > 50 µM (active)

COC(=O)Cc1ccc(NC(=O)c2ccc(C(C)(C)C)cc2)cc1
EC50 [7]: > 50 µM (not active) | EC50 [22]: 0.263 µM (active) | EC50 [8]: < 0.1 µM (active) | EC50 [23]: 0.161 µM (active) | IC50 [24]: 78.9 µM (inactive) | EC50 [10]: 1.8 µM (active) | IC50 [25]: 0.19 µM (active) | EC50 [26]: 0.067 µM (active) | EC50 [12]: < 0.1 µM (active) | EC50 [13]: < 0.1 µM (active)

O=C1NC(=S)NC(=O)C1=C(O)Nc1ccccc1
GI50 [27]: 16.7 µM (inactive) | GI50 [28]: 15 µM (inactive) | GI50 [29]: 25.2 µM (inactive) | EC50 [21]: > 50 µM (active)

O=C1C2ON(c3ccc(Br)cc3)C(c3cccnc3)C2C(=O)N1C1CCCCC1 (stereo not drawn)
CC50 [30]: 37.9 µM (active)

COc1cccc(CNC(=O)CCCn2c(=S)[nH]c3cc4c(cc3c2=O)OCO4)c1
IC50 [2]: > 39.8 µM (not active) | IC50 [3]: 4.26 µM (active) | EC50 [31]: 54.4 µM (active) | EC50 [32]: > 350 µM (not active)

CCOC(=O)/C(=N\Nc1ccccc1)c1csc(Nc2ccc(C)cc2)n1
CC50 [30]: 31.3 µM (active) | EC50 [15]: > 30 µM (not active) | EC50 [17]: 2.13 µM (active)

O=C(N/N=C/c1ccc([N+](=O)[O-])s1)c1ccccc1Br
EC50 [7]: > 50 µM (not active) | AC50 [33]: 39.8 µM (inconclusive) | EC50 [10]: 0.24 µM (active) | AC50 [34]: 3.65 µM (active) | AC50 [35]: 22.4 µM (inconclusive)

Reference: ChEMBL document CHEMBL1201862, “PubChem BioAssay data set” (2004)
